The structures appear in SMILES notation. Structures can show the parent of a compound that is named as a salt. Where only a bound is given, the exact number is not on record here.

The text below walks through data of patent US20080090863A1, “Pyridine Derivatives and Their Use as Medicaments for Treating Diseases Related to Mch Receptor” (TAISHO PHARMACEUTICAL CO., LTD., priority 2004, published 2008).

The first assay addresses MCH receptor (Homo sapiens, UniProt Q99705). As to the kind of experiment: High Throughput Functional Screening: FLIPR/FDSS6000 intracellular Ca2+ assay, antagonist activity against MCH. The assay is classed as cell-based. Set-up: class (percent of control at 10^−7 M or IC50): scale not given here. To be noted: FLIPR/FDSS, [Ca2+]i evoked by 50 nM MCH, non-endogenous constitutively active MCH receptor; read-out: IC50. From the text: Subsequently, a functional based assay was used to confirm the lead hits, referred to as FLIPR™ (the Fluorometric Imaging Plate Reader) and FDSS6000™ (Functional Drug Screening System). This assay utilized a non-endogenous, constitutively active version of the MCH receptor.
The FLIPR and FDSS assays are able to detect intracellular Ca^2+ concentration in cells, which can be utilized to assess receptor activation and determine whether a candidate compound is an, for example, antagonist, inverse agonist or agonist to a Gq-coupled receptor. The concentration of free Ca^2+ in the cytosol of any cell is extremely low, whereas its concentration in the extracellular fluid and endoplasmic reticulum (ER) is very high. Thus, there is a large gradient tending to drive Ca^2+ into the cytosol across both the plasma membrane and ER. The FLIPR™ and FDSS6000™ systems (Molecular Devices Corporation, HAMAMATSU Photonics K.K.) are designed to perform functional cell-based assays, such as the measurement of intracellular calcium for high-throughput screening. The measurement of fluorescent is associated with calcium release upon activation of the Gq-coupled receptors.
Fluorometric Imaging Plate Reader system was used to allow for rapid, kinetic measurements of intracellular fluorescence in 96 well microplates (or 384 well microplates). Simultaneous measurements of fluorescence in all wells can be made by FLIPR or FDSS6000™ every second with high sensitivity and precision. These systems are ideal for measuring cell-based functional assays such as monitoring the intracellular calcium fluxes that occur within seconds after activation of the Gq coupled receptor.
Briefly, the cells are seeded into 96 well at 5.5×10^4 cells/well with complete culture media (Dulbecco's Modified Eagle Medium with 10% fetal bovine serum, 2 mM L-glutamine, 1 mM sodium pyruvate and 0.5 mg/mL G418, pH 7.4) for the assay next day. On the day of assay, the media is removed and the cells are incubated with 100 μl of loading buffer (4 μM Fluo4-AM in complete culture media containing 2.5 mM Probenicid, 0.5 mg/ml and 0.2% bovine serum albumin) in 5% CO2 incubator at 37° C. for 1 hr. The loading buffer is removed, and the cells are washed with wash buffer (Hank's Balanced Salt Solution containing 2.5 mM Probenicid, 20 mM HEPES, 0.5 mg/mL and 0.2% bovine serum albumin, pH 7.4). One hundred fifty μl of wash buffer containing various concentrations of test compound is added to the cells, and the cells are incubated in 5% CO2 incubator at 37° C. for 30 min. Fifty μl of wash buffer containing various concentration of MCH are added to each well, and transient changes in [Ca^2+]i evoked by MCH are monitored using the FLIPR™ or FDSS in 96 well plates at Ex. 488 nm and Em. 530 nm for 290 second. When antagonist activity of compound is tested, 50 nM of MCH is used.
Use of FLIPR™ and FDSS6000™ can be accomplished by following manufacturer's instruction (Molecular Device Corporation and HAMAMATSU Photonics K.K.).
As for `Cc1cnc(N[C@H]2CC[C@@H](NC(=O)c3ccc(F)c(Cl)c3)CC2)cc1N(C)C` [Example 4, 3-Chloro-N-(cis-4-{[4-(dimethylamino)-5-methylpyridin-2-yl]amino}cyclohexyl)-4-fluorobenzamide hydrochloride], the IC50 (as a rule, the concentration at which inhibition is half-maximal) worked out at 1 nM.

`Cc1cnc(N[C@H]2CC[C@@H](NC(=O)c3cc(F)c(F)c(F)c3)CC2)cc1N(C)C` [Example 5, N-(cis-4-{[4-(Dimethylamino)-5-methylpyridin-2-yl]amino}cyclohexyl)-3,4,5-trifluorobenzamide hydrochloride]: the IC50 was 1.9 nM.

Staying with this assay, now noted: FLIPR/FDSS, [Ca2+]i evoked by 50 nM MCH; class by percent of control at 10^−7 M or IC50.
Regarding `Cc1ccc(N[C@H]2CC[C@@H](NC(=O)c3ccc(F)c(Cl)c3)CC2)nc1.Cl` [Example 2, 3-Chloro-4-fluoro-N-{cis-4-[(5-methylpyridin-2-yl)amino]cyclohexyl}benzamide hydrochloride], the “class (percent of control at 10^−7 M or IC50)” value is listed as 2. Take `Cc1cccc(N[C@H]2CC[C@@H](NC(=O)c3ccc(F)c(Cl)c3)CC2)n1.Cl` [Example 3, 3-Chloro-4-fluoro-N-{cis-4-[(6-methylpyridin-2-yl)amino]cyclohexyl}benzamide hydrochloride]: the “class (percent of control at 10^−7 M or IC50)” value worked out at 2. On the same count and under the same terms, for `Cc1cnc(N[C@H]2CC[C@@H](NC(=O)c3ccc(F)c(Cl)c3)CC2)cc1N.Cl` [Example 17, N-{cis-4-[(4-Amino-5-methylpyridin-2-yl)amino]cyclohexyl}-3-chloro-4-fluorobenzamide hydrochloride] the value was 2; for `Cc1cnc(N[C@H]2CC[C@@H](NC(=O)c3cc(F)c(F)c(F)c3)CC2)cc1N.Cl` [Example 18, N-{cis-4-[(4-Amino-5-methylpyridin-2-yl)amino]cyclohexyl}-3,4,5-trifluorobenzamide hydrochloride], 2. For `CCN(C)c1cc(N[C@H]2CC[C@@H](NC(=O)c3ccc(F)c(Cl)c3)CC2)ncc1C.Cl` [Example 19, 3-Chloro-N-[cis-4-({4-[ethyl(methyl)amino]-5-methylpyridin-2-yl}amino)cyclohexyl]-4-fluorobenzamide hydrochloride], the “class (percent of control at 10^−7 M or IC50)” value was determined as 2. On to `Cc1cnc(N[C@H]2CC[C@@H](NC(=O)c3ccc(F)c(Cl)c3)CC2)cc1N1CCCC1.Cl` [Example 20, 3-Chloro-4-fluoro-N-{cis-4-[(5-methyl-4-pyrrolidin-1-ylpyridin-2-yl)amino]cyclohexyl}-benzamide hydrochloride], for which the “class (percent of control at 10^−7 M or IC50)” value was 2. For the compound `Cc1cnc(N[C@H]2CC[C@@H](NC(=O)Nc3ccc(F)c(Cl)c3)CC2)cc1N(C)C.Cl` [Example 25, N-(3-Chloro-4-fluorophenyl)-N′-(cis-4-{[4-(dimethylamino)-5-methylpyridin-2-yl]amino}cyclohexyl)urea hydrochloride], the “class (percent of control at 10^−7 M or IC50)” value was 2. On to `Cc1cnc(N[C@H]2CC[C@@H](NC(=S)Nc3ccc(F)c(Cl)c3)CC2)cc1N(C)C.Cl` [Example 26, N-(3-Chloro-4-fluorophenyl)-N′-(cis-4-{[4-(dimethylamino)-5-methylpyridin-2-yl]amino}-cyclohexyl)thiourea hydrochloride], for which the “class (percent of control at 10^−7 M or IC50)” value is 2. On to `Cc1cnc(N[C@H]2CC[C@@H](NC(=O)Oc3ccc(Br)cc3)CC2)cc1N(C)C` [Example 27, 4-Bromophenyl (cis-4-{[4-(dimethylamino)-5-methylpyridin-2-yl]amino}cyclohexyl)carbamate], for which the “class (percent of control at 10^−7 M or IC50)” value is reported as 2. Turning to `Cc1cnc(N[C@H]2CC[C@@H](CNC(=O)c3ccc(F)c(Cl)c3)CC2)cc1N(C)C.Cl` [Example 32, 3-Chloro-N-[(cis-4-{[4-(dimethylamino)-5-methylpyridin-2-yl]amino}cyclohexyl)methyl]-4-fluorobenzamide hydrochloride], the “class (percent of control at 10^−7 M or IC50)” value was 2.

The assay is the same for the next values; noted with them: FLIPR/FDSS, [Ca2+]i evoked by 50 nM MCH; class by percent of control at 10^−7 M or IC50; read-out: class (percent of control at 10^−7 M or IC50).
`Cc1cnc(N[C@H]2CC[C@@H](NC(=O)c3ccc(F)c(Cl)c3)CC2)cc1N(C)C` [Example 4, 3-Chloro-N-(cis-4-{[4-(dimethylamino)-5-methylpyridin-2-yl]amino}cyclohexyl)-4-fluorobenzamide hydrochloride]: the IC50 is under 50 nM. For the compound `Cc1cnc(N[C@H]2CC[C@@H](NC(=O)c3cc(F)c(F)c(F)c3)CC2)cc1N(C)C` [Example 5, N-(cis-4-{[4-(Dimethylamino)-5-methylpyridin-2-yl]amino}cyclohexyl)-3,4,5-trifluorobenzamide hydrochloride], the half-maximal inhibitory concentration (IC50) is under 50 nM. As for `Cc1cnc(N[C@H]2CC[C@@H](NC(=O)c3cc(F)cc(Cl)c3)CC2)cc1N(C)C` [Example 6, 3-Chloro-N-(cis-4-{[4-(dimethylamino)-5-methylpyridin-2-yl]amino}cyclohexyl)-5-fluorobenzamide hydrochloride], the IC50 was under 50 nM. `Cc1cnc(N[C@H]2CC[C@@H](NC(=O)c3cc(Cl)cc(Cl)c3)CC2)cc1N(C)C` [Example 7, 3,5-Dichloro-N-(cis-4-{[4-(dimethylamino)-5-methylpyridin-2-yl]amino}cyclohexyl)benzamide hydrochloride]: the IC50 is under 50 nM.

As for `Cc1cnc(N[C@H]2CC[C@@H](NC(=O)c3ccc(F)c(F)c3)CC2)cc1N(C)C` [Example 8, N-(cis-4-{[4-(Dimethylamino)-5-methylpyridin-2-yl]amino}cyclohexyl)-3,4-difluorobenzamide hydrochloride], the IC50 was under 50 nM. Regarding `Cc1cnc(N[C@H]2CC[C@@H](NC(=O)c3ccc(Cl)c(Cl)c3)CC2)cc1N(C)C` [Example 9, 3,4-Dichloro-N-(cis-4-{[4-(Dimethylamino)-5-methylpyridin-2-yl]amino}cyclohexyl)benzamide hydrochloride], the IC50 was under 50 nM.

On to `Cc1cnc(N[C@H]2CC[C@@H](NC(=O)c3cccc(Cl)c3)CC2)cc1N(C)C` [Example 10, 3-Chloro-N-(cis-4-{[4-(dimethylamino)-5-methylpyridin-2-yl]amino}cyclohexyl)benzamide hydrochloride], for which the IC50 is under 50 nM. As for `Cc1cnc(N[C@H]2CC[C@@H](NC(=O)c3cncc(Br)c3)CC2)cc1N(C)C` [Example 11, 5-Bromo-N-(cis-4-{[4-(dimethylamino)-5-methylpyridin-2-yl]amino}cyclohexyl)nicotinamide dihydrochloride], the half-inhibitory concentration (IC50) is under 50 nM. Consider `Cc1cnc(N[C@H]2CC[C@@H](NC(=O)c3cccc(OC(F)(F)F)c3)CC2)cc1N(C)C` [Example 12, N-(cis-4-{[4-(Dimethylamino)-5-methylpyridin-2-yl]amino}cyclohexyl)-3-(trifluoromethoxy)-benzamide hydrochloride], for which the half-maximal inhibitory concentration (IC50) is under 50 nM. For the compound `Cc1cnc(N[C@H]2CC[C@@H](NC(=O)c3ccc(F)c(C(F)(F)F)c3)CC2)cc1N(C)C` [Example 13, N-(cis-4-{[4-(Dimethylamino)-5-methylpyridin-2-yl]amino}cyclohexyl)-4-fluoro-3-(trifluoromethyl)benzamide hydrochloride], the IC50 is under 50 nM. Take `Cc1cnc(N[C@H]2CC[C@@H](NC(=O)c3cccc(C(F)(F)F)c3)CC2)cc1N(C)C` [Example 14, N-(cis-4-{[4-(Dimethylamino)-5-methylpyridin-2-yl]amino}cyclohexyl)-3-(trifluoromethyl)-benzamide hydrochloride]: the IC50 was under 50 nM. With `CNc1cc(N[C@H]2CC[C@@H](NC(=O)c3ccc(F)c(Cl)c3)CC2)ncc1C` [Example 15, 3-Chloro-4-fluoro-N-(cis-4-{[5-methyl-4-(methylamino)pyridin-2-yl]amino}cyclohexyl)-benzamide hydrochloride], the IC50 is under 50 nM. Take `CNc1cc(N[C@H]2CC[C@@H](NC(=O)c3cc(F)c(F)c(F)c3)CC2)ncc1C` [Example 16, 3,4,5-Trifluoro-N-(cis-4-{[5-methyl-4-(methylamino)pyridin-2-yl]amino}cyclohexyl)-benzamide hydrochloride]: the IC50 was under 50 nM.

Consider `Cc1cc(N(C)C)cc(N[C@H]2CC[C@@H](NC(=O)c3ccc(F)c(Cl)c3)CC2)n1` [Example 28, 3-Chloro-N-(cis-4-{[4-(dimethylamino)-6-methylpyridin-2-yl]amino}cyclohexyl)-4-fluorobenzamide hydrochloride], for which the half-inhibitory concentration (IC50) is under 50 nM. For the compound `Cc1cc(N(C)C)cc(N[C@H]2CC[C@@H](NC(=O)c3cc(F)c(F)c(F)c3)CC2)n1` [Example 29, N-(cis-4-{[4-(Dimethylamino)-6-methylpyridin-2-yl]amino}cyclohexyl)-3,4,5-trifluorobenzamide hydrochloride], the half-maximal inhibitory concentration (IC50) was under 50 nM.
